Experimental data: US20140255392A1 (BAYER INTELLECTUAL PROPERTY GMBH, priority 2011, published 2014)

Target: T1, human kinase Mps-1 (Homo sapiens, UniProt P33981)
T1 construct: N-terminally GST-tagged human full length recombinant Mps-1 kinase; GST (N); purchased Invitrogen, Karslruhe, Germany PV4071
T1 sequence (P33981 1-857): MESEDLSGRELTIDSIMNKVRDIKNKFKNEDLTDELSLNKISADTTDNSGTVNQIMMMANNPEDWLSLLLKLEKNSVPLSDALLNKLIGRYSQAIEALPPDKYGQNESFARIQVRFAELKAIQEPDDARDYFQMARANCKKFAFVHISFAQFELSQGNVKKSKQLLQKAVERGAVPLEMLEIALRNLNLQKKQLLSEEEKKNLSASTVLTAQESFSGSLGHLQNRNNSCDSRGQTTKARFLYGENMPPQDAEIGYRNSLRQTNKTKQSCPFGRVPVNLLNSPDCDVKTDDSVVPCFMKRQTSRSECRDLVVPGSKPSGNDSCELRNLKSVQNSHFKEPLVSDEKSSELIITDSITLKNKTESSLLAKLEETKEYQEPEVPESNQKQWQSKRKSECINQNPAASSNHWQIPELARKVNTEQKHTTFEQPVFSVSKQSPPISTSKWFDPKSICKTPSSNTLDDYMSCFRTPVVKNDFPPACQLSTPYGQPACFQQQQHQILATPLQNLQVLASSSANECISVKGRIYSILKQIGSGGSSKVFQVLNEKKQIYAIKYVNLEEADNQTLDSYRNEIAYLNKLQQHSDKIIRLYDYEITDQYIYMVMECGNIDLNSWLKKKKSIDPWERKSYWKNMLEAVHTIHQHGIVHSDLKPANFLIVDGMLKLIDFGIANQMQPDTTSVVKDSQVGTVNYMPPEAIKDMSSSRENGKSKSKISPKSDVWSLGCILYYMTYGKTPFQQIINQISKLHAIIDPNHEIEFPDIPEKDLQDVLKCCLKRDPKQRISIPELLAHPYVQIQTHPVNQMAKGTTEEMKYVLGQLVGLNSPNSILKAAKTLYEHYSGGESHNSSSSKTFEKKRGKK
Assay: Mps-1 kinase assay (TR-FRET)
Format: biochemical
Details: N-terminally GST-tagged human full length recombinant Mps-1; 10 μM ATP; 1 μM peptide substrate; 60 min at 22° C.
Procedure: The human kinase Mps-1 phosphorylates a biotinylated substrate peptide. Detection of the phosphorylated product is achieved by time-resolved fluorescence resonance energy transfer (TR-FRET) from Europium-labelled anti-phospho-Serine/Threonine antibody as donor to streptavidin labelled with cross-linked allophycocyanin (SA-XLent) as acceptor. Compounds are tested for their inhibition of the kinase activity.
N-terminally GST-tagged human full length recombinant Mps-1 kinase (purchased from Invitrogen, Karslruhe, Germany, cat. no PV4071) was used. As substrate for the kinase reaction a biotinylated peptide of the amino-acid sequence […] (C-terminus in amide form, purchased from Biosynthan GmbH, Berlin) was used.
The concentration of Mps-1 in the assay was adjusted to the activity of the enzyme lot and was chosen appropriate to have the assay in the linear range, typical enzyme concentrations were in the range of about 1 nM (final conc. in the 5 μl assay volume).
The resulting mixture was incubated 1 h at 22° C. to allow the binding of the phosphorylated peptide to the anti-phospho(Ser/Thr)-Europium-antibody. Subsequently the amount of phosphorylated substrate was evaluated by measurement of the resonance energy transfer from the Europium-labelled anti-phospho(Ser/Thr) antibody to the Streptavidin-XLent.

| IC50 | Structure (SMILES) |
| --- | --- |
| 0.8 nM | Cc1cc(-c2cnc3c(NCCC(F)(F)F)cc(Oc4cccc(F)c4)cn23)ccc1C(=O)NC1CC1F (single isomer, unassigned) [Example 12 (A or ent.-A), N-{[(1S,2S) or (1R,2R)]-2-fluorocyclopropyl}-4-{6-(3-fluorophenoxy)-8-[(3,3,3-trifluoropropyl)amino]imidazo[1,2-a]pyridin-3-yl}-2-methylbenzamide] |
| 0.7 nM | Cc1cc(-c2cnc3c(NCCC(F)(F)F)cc(Oc4cccc(F)c4)cn23)ccc1C(=O)NC1CC1F (single isomer, unassigned) [Example 12 (ent.-A or A), N-{[(1R,2R) or (1S,2S)]-2-fluorocyclopropyl}-4-{6-(3-fluorophenoxy)-8-[(3,3,3-trifluoropropyl)amino]imidazo[1,2-a]pyridin-3-yl}-2-methylbenzamide] |
| 2.9 nM | Cc1cc(-c2cnc3c(NCCC(F)(F)F)cc(Oc4cccc(Cl)c4)cn23)ccc1C(=O)NC1CC1F (single isomer, unassigned) [Example 39 (A or ent.-A), 4-{6-(3-chlorophenoxy)-8-[(3,3,3-trifluoropropyl)amino]imidazo[1,2-a]pyridin-3-yl}-N-{[(1S,2S) or (1R,2R)]-2-fluorocyclopropyl}-2-methylbenzamide] |
| 4.9 nM | Cc1cc(-c2cnc3c(NCCC(F)(F)F)cc(Oc4cccc(Cl)c4)cn23)ccc1C(=O)NC1CC1F (single isomer, unassigned) [Example 39 (ent.-A or A), 4-{6-(3-chlorophenoxy)-8-[(3,3,3-trifluoropropyl)amino]imidazo[1,2-a]pyridin-3-yl}-N-{[1R,2R) or (1S,2S)]-2-fluorocyclopropyl}-2-methylbenzamide] |
| 0.9 nM | Cc1cc(-c2cnc3c(NCCC(F)(F)F)cc(-c4ccccc4CO)cn23)ccc1C(=O)NC1CC1 [Example 2-1, N-cyclopropyl-4-{6-[2-(hydroxymethyl)phenyl]-8-[(3,3,3-trifluoropropyl)amino]imidazo[1,2-a]pyridin-3-yl}-2-methylbenzamide] |
| 0.3 nM | Cc1cc(-c2cnc3c(NCCC(F)(F)F)cc(-c4ccncc4)cn23)ccc1C(=O)NC1CC1 [Example 2-2, N-cyclopropyl-2-methyl-4-{6-(pyridin-4-yl)-8-[(3,3,3-trifluoropropyl)amino]imidazo [1,2-a]pyridin-3-yl} benzamide] |
| 0.6 nM | Cc1cc(F)cc(Sc2cc(NCCC(F)(F)F)c3ncc(-c4ccc(C(=O)NC5CC5)c(C)c4)n3c2)c1 [Example 3-1, N-cyclopropyl-4-{6-[(3-fluoro-5-methylphenyl)sulfanyl]-8-[(3,3,3-trifluoropropyl)amino]imidazo[1,2-a]pyridin-3-yl}-2-methylbenzamide] |
| 0.3 nM | Cc1cc(-c2cnc3c(NCCC(F)(F)F)cc(Sc4cccc(F)c4F)cn23)ccc1C(=O)NC1CC1 [Example 3-2, N-cyclopropyl-4-{6-[(2,3-difluorophenyl)sulfanyl]-8-[(3,3,3-trifluoropropyl)amino]imidazo[1,2-a]pyridin-3-yl}-2-methylbenzamide] |
| 0.5 nM | Cc1cc(-c2cnc3c(NCCC(F)(F)F)cc(Sc4ccccc4)cn23)ccc1C(=O)NC1CC1 [Example 3-3, N-cyclopropyl-2-methyl-4-{6-(phenylsulfanyl)-8-[(3,3,3-trifluoropropyl)amino]imidazo[1,2-a]pyridin-3-yl} benzamide] |
| 2 nM | Cc1cc(-c2cnc3c(NCCC(F)(F)F)cc(Sc4ccccc4N)cn23)ccc1C(=O)NC1CC1 [Example 3-4, 4-{6-[(2-aminophenyl)sulfanyl]-8-[(3,3,3-trifluoropropyl)amino]imidazo[1,2-a]pyridin-3-yl}-N-cyclopropyl-2-methylbenzamide] |
| 0.8 nM | Cc1cc(-c2cnc3c(NCCC(F)(F)F)cc(Sc4cccc(F)c4)cn23)ccc1C(=O)NC1CC1 [Example 3-5] |
| 0.4 nM | Cc1cc(-c2cnc3c(NCCC(F)(F)F)cc(Sc4ccccc4O)cn23)ccc1C(=O)NC1CC1 [Example 3-6, N-cyclopropyl-4-{6-[(2-hydroxyphenyl)sulfanyl]-8-[(3,3,3-trifluoropropyl)amino]imidazo[1,2-a]pyridin-3-yl}-2-methylbenzamide] |
| 84.1 nM | Cc1cc(-c2cnc3c(NCCC(F)(F)F)cc(S(C)(=O)=O)cn23)ccc1C(=O)NC1CC1 [Example 5-1] |
| 0.3 nM | Cc1cc(-c2cnc3c(NCCC(F)(F)F)cc(Oc4cccc(F)c4)cn23)ccc1C(=O)NC1CC1 [Example 6-1, N-cyclopropyl-4-{6-(3-fluorophenoxy)-8-[(3,3,3-trifluoropropyl)amino]imidazo[1,2-a]pyridin-3-yl}-2-methylbenzamide] |
| 3.4 nM | CNC(=O)c1ccc(-c2cnc3c(NCCC(F)(F)F)cc(Oc4cccc(F)c4)cn23)cc1C [Example 8, 4-{6-(3-Fluorophenoxy)-8-[(3,3,3-trifluoropropyl)amino]imidazo[1,2-a]pyridin-3-yl}-N,2-dimethylbenzamide] |
| 0.4 nM | Cc1cc(-c2cc(NCC3CCOCC3)c3ncc(-c4ccc(C(=O)NC5CC5)c(C)c4)n3c2)ccc1C(=O)NC1CC1 [Example 9, 4,4′-{8-[(Tetrahydro-2H-pyran-4-ylmethyl)amino]imidazo[1,2-a]pyridine-3,6-diyl}bis(N-cyclopropyl-2-methylbenzamide)] |
| 2.9 nM | CCNC(=O)c1ccc(-c2cnc3c(NCCC(F)(F)F)cc(Oc4cccc(F)c4)cn23)cc1C [Example 10, N-ethyl-4-{6-(3-fluorophenoxy)-8-[(3,3,3-trifluoropropyl)amino]imidazo[1,2-a]pyridin-3-yl}-2-methylbenzamide] |
| 3.8 nM | Cc1cc(-c2cnc3c(NCCC(F)(F)F)cc(Oc4cccc(F)c4)cn23)ccc1C(=O)NC1(C)CC1 [Example 11, 4-{6-(3-Fluorophenoxy)-8-[(3,3,3-trifluoropropyl)amino]imidazo[1,2-a]pyridin-3-yl}-2-methyl-N-(1-methylcyclopropyl)benzamide] |
| 11.1 nM | Cc1cc(-c2cnc3c(NCCC(F)(F)F)cc(Oc4cccc(F)c4)cn23)ccc1C(=O)NC1(C#N)CC1 [Example 13, N-(1-cyanocyclopropyl)-4-{6-(3-fluorophenoxy)-8-[(3,3,3-trifluoropropyl)amino]imidazo[1,2-a]pyridin-3-yl}-2-methylbenzamide] |
| 65.2 nM | C#Cc1cc(NCCC(F)(F)F)c2ncc(-c3ccc(C(=O)NC)c(C)c3)n2c1 [Example 14, 4-{6-ethynyl-8-[(3,3,3-trifluoropropyl)amino]imidazo[1,2-a]pyridin-3-yl}-N,2-dimethylbenzamide] |
| 55 nM | C#Cc1cc(NCCC(F)(F)F)c2ncc(-c3ccc(C(=O)NCC)c(C)c3)n2c1 [Example 15, N-ethyl-4-{6-ethynyl-8-[(3,3,3-trifluoropropyl)amino]imidazo[1,2-a]pyridin-3-yl}-2-methylbenzamide] |
| 108 nM | C#Cc1cc(NCCC(F)(F)F)c2ncc(-c3ccc(C(=O)NC4(C)CC4)c(C)c3)n2c1 [Example 17, 4-{6-ethynyl-8-[(3,3,3-trifluoropropyl)amino]imidazo[1,2-a]pyridin-3-yl}-2-methyl-N-(1-methylcyclopropyl)benzamide] |
| 65.5 nM | C#Cc1cc(NCCC(F)(F)F)c2ncc(-c3ccc(C(=O)NC4(C#N)CC4)c(C)c3)n2c1 [Example 18, N-(1-cyanocyclopropyl)-4-{6-ethynyl-8-[(3,3,3-trifluoropropyl)amino]imidazo[1,2-a]pyridin-3-yl}-2-methylbenzamide] |
| 0.7 nM | Cc1ccc(F)cc1Oc1cc(NCCC(F)(F)F)c2ncc(-c3ccc(C(=O)NC4CC4)c(C)c3)n2c1 [Example 19, N-cyclopropyl-4-{6-(5-fluoro-2-methylphenoxy)-8-[(3,3,3-trifluoropropyl)amino]imidazo[1,2-a]pyridin-3-yl}-2-methylbenzamide] |
| 41.1 nM | CNC(=O)c1ccc(-c2cnc3c(NCCC(F)(F)F)cc(C#CCO)cn23)cc1C [Example 20, 4-{6-(3-hydroxyprop-1-yn-1-yl)-8-[(3,3,3-trifluoropropyl)amino]imidazo[1,2-a]pyridin-3-yl}-N,2-dimethylbenzamide] |
